According to US6977263B2, “Chemical compounds” (Aventis Pharmaceuticals Inc., priority 2000, dated 2005):
Structures can show the parent of a compound that is named as a salt.

What follows are compounds tested against T1, recombinant human β tryptase (Homo sapiens, UniProt Q15661) (assay: Tryptase chromogenic enzyme assay (S2366 substrate), Ki determination). Conditions: room temperature, 0.5 mM S2366 substrate (2×Km), read at 405 nm; Ki=IC50/(1+[Substrate]/Km).
T1 construct: made in house; host or cells: yeast cells
Assay type: biochemical
Procedure: Tryptase inhibition activity is confirmed using either isolated human lung tryptase or recombinant human β tryptase expressed in yeast cells. Essentially equivalent results are obtained using isolated native enzyme or the expressed enzyme. The assay procedure employs a 96 well microplate (Costar 3590) using L-pyroglutamyl-L-prolyl-L-arginine-para-nitroanilide (S2366: Quadratech) as substrate (essentially as described by McEuen et. al. Biochem Pharm, 1996, 52, pages 331-340). Assays are performed at room temperature using 0.5 mM substrate (2×Km) and the microplate is read on a microplate reader (Beckman Biomek Plate reader) at 405 nm wavelength. It was determined using the procedure set forth herein.
Materials and Methods for Tryptase Primary Screen (Chromogenic Assay)
S2366 (Stock solutions of 2.5 mM).
Purified recombinant beta Tryptase Stocks of 310 ug/ml.
• Add 60 ul of diluted substrate (final concentration of 500 uM in assay buffer) to each well • Add compound in duplicates, final concentration of 20 uM, volume 20 ul • Add enzyme at a final concentration of 50 ng/ml in a volume of 20 ul • Total volume for each well is 100 ul • Agitate briefly to mix and incubate at room temp in the dark for 30 minutes • Read absorbencies at […]
Each plate has the following controls • Totals: 60 ul of substrate, 20 ul of buffer (with 0.2% final concentration of DMSO), 20 ul of enzyme • Non-specific: 60 ul of substrate, 40 ul of buffer (with 0.2% DMSO) • Totals: 60 ul of substrate, 20 ul of buffer (No DMSO), 20 ul of enzyme • Non-specific: 60 ul of substrate, 40 ul of buffer (No DMSO) Protocol (IC50 and Ki Determination)
The protocol is essentially the same as above except that the compound is added in duplicates at the following final concentrations: 0.01, 0.03, 0.1, 0.3, 1, 3, 10 uM (All dilutions carried out manually). For every assay, whether single point or IC50 determination, a standard compound is used to derive IC50 for comparison. From the IC 50 value, the Ki can be calculated using the following formula: Ki=IC50/(1+[Substrate]/Km).

T1 sequence (Q15661 31-275): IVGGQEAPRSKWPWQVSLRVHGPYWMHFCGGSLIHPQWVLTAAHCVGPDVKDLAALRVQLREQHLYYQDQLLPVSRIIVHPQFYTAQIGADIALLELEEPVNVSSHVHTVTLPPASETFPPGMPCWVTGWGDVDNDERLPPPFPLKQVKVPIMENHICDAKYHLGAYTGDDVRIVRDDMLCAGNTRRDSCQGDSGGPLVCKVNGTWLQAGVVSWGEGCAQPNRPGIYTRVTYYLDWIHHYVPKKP

Ki [nM]	Structure (SMILES)
390	NCc1cccc(C2CCN(C(=O)c3cccc(-c4nnc(-c5ccccc5Cl)o4)c3)CC2)c1 [Example 49, 1-[4-(3-Aminomethyl-phenyl)-piperidin-1-yl]-1-{3-[5-(2-chloro-phenyl)-[1,3,4]oxadiazol-2-yl]-phenyl}-methanone trifluoroacetate]
69	Cc1ccc(CN)cc1C1CCN(C(=O)c2cncc(CCc3ccccc3)c2)CC1 [Example 18, 4-Methyl-3-[1-(5-phenylethyl-pyridine-3-carbonyl)-piperidin-4-yl]-benzylamine di-hydrochloride]
870	NCc1cccc(C2CCN(C(=O)c3cccc(C#Cc4ccc(F)cc4)c3)CC2)c1 [Example 83, 1-[4-(3-Aminomethyl-phenyl)-piperidin-1-yl]-1-[3-(4-fluoro-phenylethynyl)-phenyl]-methanone trifluoroacetate]
31	NCc1cccc(C2CCN(C(=O)c3ccc(Cl)c(Cl)c3)CC2)c1 [Example 36, [4-(3-Aminomethylphenyl)piperidin-1-yl]-(3,4-dichlorophenyl)methanone trifluoroacetate]
1070	NCc1cccc(C2CCN(C(=O)c3cccc(COc4ccccc4)c3)CC2)c1 [Example 15, 3-[1-(3-Phenoxymethyl-benzoyl)-piperidin-4-yl]-benzylamine hydrochloride]
190	NCc1cccc(C2CCN(C(=O)c3cc4sc(Cl)cc4s3)CC2)c1 [Example 92, 1-[4-(3-Aminomethyl-phenyl)-piperidin-1-yl]-1-(5-chloro-thieno[3,2-b]thiophen-2-yl)-methanone trifluoroacetate]
490	NCc1cc(C2CCN(C(=O)c3cncc(CCc4ccccc4)c3)CC2)cs1 [Example 100, dihydrochloride]
180	NCc1cccc(C2CCN(C(=O)c3cccc(CCc4ccccc4O)c3)CC2)c1 [Example 98, 1-[4-(3-Aminomethyl-phenyl)-piperidin-1-yl]-1-{3-[2-(2-hydroxy-phenyl)-ethyl]-phenyl}-methanone hydrochloride]
50	NCc1cccc(C2CCN(C(=O)c3ccc(CCc4ccccc4)s3)CC2)c1 [Example 13, 3-[1-(5-Phenylethyl-thiophene-2-carbonyl)-piperidin-4-yl]-benzylamine hydrochloride]
180	NCc1cccc(C2CCN(C(=O)c3cccc(-c4nnc(-c5ccccc5)o4)c3)CC2)c1 [Example 19, 3-{1-[3-(5-Phenyl-1,3,4-oxadiazol-2-yl)-phenylcarbonyl]-piperidin-4-yl}-benzylamine hydrochloride]
450	NCc1cccc(C2CCN(C(=O)c3ccc(CCc4ccccc4)cc3)CC2)c1 [Example 97, 1-[4-(3-Aminomethylphenyl)-piperidin-1-yl]-1-(4-phenylethyl-phenyl)-methanone hydrochloride]
93	N#CC1(c2cccc(CN)c2)CCN(C(=O)c2cncc(CCc3ccccc3)c2)CC1 [Example 35, 4-(3-Aminomethyl-phenyl)-1-(5-phenethyl-pyridine-3-carbonyl)-piperidine-4-carbonitrile]
290	NCc1cccc(C2CCN(C(=O)c3scc4c3CCCC4)CC2)c1 [Example 70, 1-[4-(3-Aminomethyl-phenyl)-piperidin-1-yl]-1-(4,5,6,7-tetrahydro-benzo[c]thiophen-1-yl)-methanone-trifluoroacetate]
390	NCc1cccc(C2CCN(C(=O)c3ccc(Cl)cc3)CC2)c1 [Example 48, 1-[4-(3-Aminomethyl-phenyl)-piperidin-1-yl]-1-(4-chloro-phenyl)-methanone trifluoroacetate]
